The test system of series [1] is HSV-2 (strain MS). The series can be described thus: Transient expression of beta galactosidase in transfected HeLa cells superinfected with HSV-2 (HSV-β-GAL assay). Format: cell-based. To be noted: Human alphaherpesvirus 2, plasmid pON 245^ori-, moi=5 pfu/cell, 24 hours, read-out: ANTI-HSV ACTIVITY HSV-β-GAL ASSAY IC50. The method, then:
HeLa and Vero cell cultures were maintained in Eagles Minimal Essential Medium (EMEM) which was supplemented with glutamine, penicillin, streptomycin and 10% fetal calf serum (10% EMEM). Stock cultures of HSV-2 (strain MS available from ATCC VR-540) were grown in and harvested from Vero cells. Viral stocks were titered in Vero cells according to established procedures.
Plasmid pON 245^ori- contains the promoter of the HSV-1 thymidine kinase (tk) gene located immediately 5' of the E. coli lac Z gene. In this arrangement, the tk promoter controls transcription from the bacterial gene in transient expression assays. Additionally, an SV40 polyadenylation signal is present at the 3' end of the lac Z gene to allow for the efficient translation of the mRNA in eucaryotic cells. The expression of beta galactosidase in a transient assay using pON 245^ori- is dependent upon superinfection of the transfected cells with HSV. […] For example see U.S. application Ser. No. 07/435,491 filed Sep. 5, 1989, the disclosure of which is incorporated herein by reference thereto.
HeLa cells were seeded into 96 well microtiter plates and allowed to grow to 80% confluency (approximately 35,000 cells/well). One half microgram of plasmid pON 245^ori- DNA was introduced into the cells of each well by the […] precipitation technique (Grahman and Van der Eb, 1973). Four to six hours later, the cells were rinsed with hank's Balanced Salt Solution (HBSS), overlaid with 10% EMEM and incubated at 37° C. At 24 hrs post-transfection, cells were rinsed, overlaid with 10% EMEM again and re-incubated at 37° C. At 48 hrs post-transfection, cells were rinsed and overlaid with either EMEM containing 2% fetal calf serum (2% EMEM), 2% EMEM containing HSV-2 (strain MS, Multiplicity of Infection [moi]=5 pfu/cell) or 2% EMEM containing HSV-2 and the appropriate concentration of Schering compound to be tested. Twenty-four hours later, the cells were harvested and assayed for beta galactosidase activity as described below.
All determinations of beta galactosidase activity were performed in 96 well microtiter plates. The intracellular level of beta galactosidase activity in each well was determined from cell lysates of the monolayer cultures. Aliquots were assayed by incubation in the presence of beta galactosidase substrate, 4-methylumbelliferyl-β-D-galactoside (MUG, 125 ug/ml, Sigma), for 2 hours. The generation of fluorescent product was quantified on a Microfluor microfluorimeter (Dynatech) after addition of 0.1M glycine, pH 10.3 (Spaete and Mocarski, 1985). The inhibitory activity of a compound was plotted versus the concentration and an IC50 value (the concentration of compound required to reduce beta glactosidase expression by 50%) was obtained for each compound tested.

The nature of series [2]: Compound toxicity assay: inhibition of HeLa cell translation (^3 H-LEU assay). Format: cell-based. The settings on record: human; HeLa cells, overnight (24 hours) treatment, tritiated leucine incorporation; read-out: CYTOTOXICITY ^3 H--LEU ASSAY IC50. The method, then: HeLa cells were treated with inhibitory compound for 24 hours, after which levels of translational activity were assayed.
For assay of translational activity, HeLa cultures were grown to 80% confluency in 96 well microtiter plates, treated with appropriate concentrations of compound in 2% EMEM during an overnight incubation at 37° C., then rinsed with HBSS and overlaid with […] of 2% EMEM containing 8 uCi of tritiated leucine (^3 H-LEU, 141 Ci/mMol, Amersham Corp., Arlington Heights Ill.). After 1 hr incubation at 36.5° C., the cells were rinsed twice with phosphate buffered saline (PBS) and lysed in 400 ul/well of 1×PBS, 0.5% sodium dodecyl sulphate (SDS). After a 10 minute incubation at 36.5° C., the contents of the well were transferred to a well in a Millititer HA microfiltration plate (Millipore Corp., Bedford, MA). The TCA insoluble proteins were precipitated onto the filter disc by a 10 minute fixation with 5% TCA, followed by filtration under vacuum and three 10 minute rinses with 95% ethanol. The filters were dried at room temperature, cut from the milltitier plate and transferred to scintillation vials. TCA precipitable counts were assayed in 5 ml of Scintisol (Isolab, Akron, Ohio). The inhibitory activity of a compound was plotted versus the concentration and an IC50 value (that concentration of the compound required to decrease cellular translational activity by 50%) was derived for each compound.

Converted amounts (≈) assume the structure as drawn.

As to `CN1C(=O)C(=CNCc2ccccc2)C(=O)c2ccccc21` [EX. 14, (E,Z) 1-Methyl-3-Benzylaminomethylene-Quinolin-2,4(1H)-Dione], the IC50 (in general, the midpoint of a concentration-inhibition curve) in series [1] was 9 µg/mL (≈ 30.8 µM). In addition, the CC50 at 24 h in series [2] was determined as 27 µg/mL (≈ 92.4 µM).

For the compound `Cc1ccc2c(c1)C(=O)C(=CNCc1ccncc1)C(=O)N2Cc1ccccc1` [EX. 15, (E,Z)1-Benzyl-3-[4-Pyridylmethylamino)methylene]-6-Methyl-Quinolin-2,4(1H)-Dione], the half-maximal inhibitory concentration (IC50) in series [1] amounted to 6 µg/mL (≈ 15.6 µM). Also, the CC50 at 24 h in series [2] was determined as 37 µg/mL (≈ 96.5 µM). On the same counts, the results for `O=C1C(=CNCc2ccccc2)C(=O)N(Cc2ccccc2)c2ccc(Cl)cc21` [EX. 16, (E,Z 1-Benzyl-3-Benzylaminomethylene-6-Chloro-Quinolin-2,4(1H)-Dione] are under 3 µg/mL and 7 µg/mL (≈ 17.4 µM).

Regarding `O=C1C(=CNCc2ccncc2)C(=O)N(Cc2ccccc2)c2ccc(Cl)cc21` [EX. 17, (E,Z1-Benzyl-3-[(4-Pyridylmethylamino)methylene-6-Chloro-Quinolin-2,4(1H)-Dione], in series [1], the IC50 came to 4 µg/mL (≈ 9.9 µM). Also, the CC50 at 24 h in series [2] was determined as 17 µg/mL (≈ 42.1 µM). Turning to `O=C1C(=CNCc2ccccc2)C(=O)N(Cc2ccccc2)c2cc(Cl)ccc21` [EX. 18, (E,Z)1-Benzyl-3-Benzylaminomethylene-7-Chloro-Quinolin-2,4(1H)-Dione], in series [1], the IC50 came to 6 µg/mL (≈ 14.9 µM). In addition, the CC50 at 24 h in series [2] was 10 µg/mL (≈ 24.8 µM). The corresponding values for `O=C1C(=CNCc2ccncc2)C(=O)N(Cc2ccccc2)c2cc(Cl)ccc21` [EX. 19, (E,Z)1-Benzyl-3-[(4-Pyridylmethylamino)methylene]7-Chloro-Quinolin-2,4(1H)-Dione] are 13 µg/mL (≈ 32.2 µM) and 40 µg/mL (≈ 99 µM).

As to `Cc1cccc2c1N(Cc1ccccc1)C(=O)C(=CNCc1ccccc1)C2=O` [EX. 20, (E,Z) 1-Benzyl-3-Benzylaminomethylene-8-Methyl-Quinolin-2,4(1H)-Dione], the IC50 in series [1] amounted to 3 µg/mL (≈ 7.84 µM). In series [2], the CC50 at 24 h is 10 µg/mL (≈ 26.1 µM). Turning to `Cc1cccc2c1N(Cc1ccccc1)C(=O)C(=CNCc1ccncc1)C2=O` [EX. 21, (E,Z)1-Benzyl-3-[(4-Pyridylmethylamino)methylene]-8-Methyl-Quinolin-2,4(1H)-Dione], the IC50 in series [1] is under 3 µg/mL. Also, in series [2], the CC50 at 24 h is 29 µg/mL (≈ 75.6 µM). The corresponding values for `CN1C(=O)C(=CNCc2ccncc2)C(=O)c2ccccc21` [EX. 22, (E,Z)1-Methyl-3-[(4-Pyridylmethylamino)methylene]Quinolin-2,4(1H)-Dione] are under 3 µg/mL and 100 µg/mL (≈ 341 µM).

`O=C1C(=CNCc2ccncc2)C(=O)N(Cc2ccccc2)c2ccccc21` [EX. 24, (E,Z)1-Benzyl-3-[(4-Pyridylmethylamino)methylene]-Quinolin-2,4(1H)-Dione]: the IC50 in series [1] stood at 10 µg/mL (≈ 27.1 µM). The CC50 at 24 h in series [2] is over 100 µg/mL. `CCCCCCN1C(=O)C(=CNCc2ccccc2)C(=O)c2ccccc21` [EX. 25, (E,Z)1-hexyl-3-benzyleminomethylene-quinolin-2,4(1H)-Dione]: in series [1], the IC50 is under 3 µg/mL. Besides, the CC50 at 24 h in series [2] came to 37 µg/mL (≈ 102 µM). Regarding `CCCCCCN1C(=O)C(=CNCc2ccncc2)C(=O)c2ccccc21` [EX. 26, (E,Z)1Hexyl-3-[(4-Pyrigylmethylamino)methylene-Quinolin-2,4(1H)-Dione], the half-inhibitory concentration (IC50) in series [1] is 4 µg/mL (≈ 11 µM). The CC50 at 24 h in series [2] was found to be 43 µg/mL (≈ 118 µM).

Consider `O=C1C(=CNCc2ccccc2)C(=O)N(c2ccccc2)c2ccccc21` [EX. 27, (E,Z)1-Phenyl-3-Benzylaminomethylene-Quinolin-2,4(1H)-Dione], for which, in series [1], the IC50 worked out at 4 µg/mL (≈ 11.3 µM). Moreover, in series [2], the CC50 at 24 h stood at 10 µg/mL (≈ 28.2 µM).

With `O=C1C(=CNCc2ccncc2)C(=O)N(c2ccccc2)c2ccccc21` [EX. 28, (E,Z)1-Phenyl-3-[(-Pyridylmethylamino)methylene]Quinolin-2,4(1H)-Dione], the IC50 in series [1] turned out to be 7 µg/mL (≈ 19.7 µM). Besides, the CC50 at 24 h in series [2] is 25 µg/mL (≈ 70.3 µM). On the same counts, the results for `CCCCCCCN1C(=O)C(=CNCc2ccccc2)C(=O)c2ccccc21` [EX. 29, (E,Z)1-Heptyl-3-Benzylaminomethylene-Quinolin-2,4(1H)-Dione] are 5 µg/mL (≈ 13.3 µM) and 16 µg/mL (≈ 42.5 µM). On the same counts, the results for `CCCCCCCN1C(=O)C(=CNCc2ccncc2)C(=O)c2ccccc21` [EX. 30, (E,Z)1-Heptyl-3-[(4-Pyridylmethylamino)methylene]-Quinolin-2,4(1H)-Dione] are 3 µg/mL (≈ 7.95 µM) and 20 µg/mL (≈ 53 µM). On the same counts, the results for `CC(NCc1ccccc1)=C1C(=O)Oc2ncccc2C1=O` [EX. 31, 3-[1-Benzylaminoethylidine]-2,4-dioxo-2,3-dihydro-4H-pyrido-[2,3-b]-pyran] are 11 µg/mL (≈ 37.4 µM) and over 100 µg/mL.

As for `CN(C)C=C1C(=O)c2cccnc2N(c2ccccc2)C1=O` [EX. 32, 1-Phenyl-3-(dimethylaminomethylene)-3,4-dihydro-2H-[1,8]-naphthyridine-2,4-dione], the IC50 in series [1] is 18 µg/mL (≈ 61.4 µM). Moreover, the CC50 at 24 h in series [2] is over 100 µg/mL. The corresponding values for `C=CCNC=C1C(=O)Oc2ccccc2C1=O` [EX. 34, E,Z-3-[Allylaminomethylene]-dihydrobenzo-[b]-pyran-2,4-dione] are 8 µg/mL (≈ 34.9 µM) and 46 µg/mL (≈ 201 µM). On the same counts, the results for `CCNC=C1C(=O)c2cccnc2N(c2ccccc2)C1=O` [EX. 35, 1-Phenyl-E,Z-3-[ethylaminomethylene]-3,4-dihydro-2H-[1,8]-naphthyridine-2,4-dione] are 7 µg/mL (≈ 23.9 µM) and over 50 µg/mL. On the same counts, the results for `O=C1C(=CNCc2ccccc2)C(=O)N(c2ccccc2)c2ncccc21` [EX. 36, 1-Phenyl-E,Z-3-[benzylaminomethylene]-3,4-dihydro-2H-[1,8]-naphthyridine-2,4-dione] are 22 µg/mL (≈ 61.9 µM) and 42 µg/mL (≈ 118 µM). `Cc1cccc(NC=C2C(=O)c3cccnc3N(c3ccccc3)C2=O)n1` [EX. 37, 1-Phenyl-E,Z-3-[(6-methyl-2-pyridylamino)methylene]-3,4-dihydro-2H-[1,8]-naphthyridine-2,4-dione]: in series [1], the IC50 was 22 µg/mL (≈ 61.7 µM). Besides, the CC50 at 24 h in series [2] was 56 µg/mL (≈ 157 µM). Consider `CCNC=C1C(=O)Oc2ncccc2C1=O` [EX. 38, 3-(ethylaminomethylene)-2,4-dioxo 3,4-dihydro-2H-pyrido-[2,3-b]-pyran], for which the IC50 in series [1] is over 25 µg/mL. For `CCCCCCCN1C(=O)C(=CNN2CCOCC2)C(=O)c2ccccc21` [EX. 39, (E,Z)-1-heptyl-3-[(4-morpholino)aminomethylene]-quinolin-2,4(1H)dione], in series [1], the concentration for half-maximal inhibition (IC50) came out at 4 µg/mL (≈ 10.8 µM). For the same compound, the CC50 at 24 h in series [2] was found to be 29 µg/mL (≈ 78.1 µM). For the compound `CCCCCCCN1C(=O)C(=CNC23CC4CC(CC(C4)C2)C3)C(=O)c2ccccc21` [EX. 40, (E,Z)-1-heptyl-3-[1-adamantylaminomethylene]-quinolin-2,4(1H)dione], in series [1], the IC50 was 5 µg/mL (≈ 11.9 µM). Besides, the CC50 at 24 h in series [2] was 33 µg/mL (≈ 78.5 µM). On the same counts, the results for `O=C1C(=CNCc2cnc[nH]2)C(=O)N(Cc2ccccc2)c2ccccc21` [EX. 41, (E,Z)-1-benzyl-3-[(1H-5-imidazolylmethyl)aminomethylene]-quinolin-2,4(1H)dione] are 8 µg/mL (≈ 22.3 µM) and 34 µg/mL (≈ 94.9 µM). The corresponding values for `CCCCCCN1C(=O)C(=CN[C@H]2C(O)O[C@H](CO)[C@@H](O)[C@@H]2O)C(=O)c2ccccc21` (some centres unmarked) [EX. 42, (E,Z)-1-hexyl-3-(D) glucosaminomethylene-quinolin-2,4(1H)dione] are 10 µg/mL (≈ 23 µM) and 25 µg/mL (≈ 57.5 µM).
